Where a name gives a salt, the structure may show the parent alone. Read-outs that look alike come from different tables or passages of the source.
Experiments:
Format in all cases: cell-based
[1] = system: Target C; test: Gene panel canonical junction qPCR assay, Target C CJ mRNA; conditions: Table 9, CJ mRNA decrease, read-out: Target C IC50 (decrease in CJ mRNA levels)
Method: (§1) To set up 10 uL RT-qPCR reactions, cell lysates were transferred to 384-well qPCR plates containing the master mix according to the table below. The plates were sealed, gently vortexed, and spun down before the run. The volumes were adjusted accordingly in some instances where the reaction was carried in 20 uL. The table below summarizes the components of the RT-qPCR reactions:
(§2) The RT-qPCR reaction was performed using a QuantStudio (ThermoFisher) under the following fast cycling conditions. All samples and standards were analyzed at least in duplicate. In some instances, bulk room temperature (RT) step of 5-10 minutes was completed for all plates before proceeding with qPCR. The table below summarizes the PCR cycle:
(§3) The data analysis was performed by first determining the ΔCt vs the housekeeper gene. This ΔCt was then normalized against the DMSO control (ΔΔCt) and converted to RQ (relative quantification) using the 2^(−ΔΔCt) equation. The RQ were then converted to a percentage response by arbitrarily setting an assay window of 3.5 ΔCt for HTT-CJ and an assay window of 9 ΔCt for HTT-AJ. […] The percentage response was then fitted to the 4 parametric logistic equation to evaluate the concentration dependence of compound treatment. The increase in AJ mRNA is reported as AC50 (compound concentration having 50% response in AJ increase) while the decrease in CJ mRNA levels is reported as IC50 (compound concentration having 50% response in CJ decrease).
(§4) Additional studies were carried out for a larger panel of genes using the protocol provided above. The junction between flanking upstream and downstream exons was used to design canonical junction qPCR assays. At least one of the forward primer, reverse primer or the CY5-labeled 5′ nuclease probe (with 3′ quencher such as ZEN/Iowa Black FQ) was designed to overlap with the exon junction to capture the CJ mRNA transcript. BLAST was used to confirm the specificity of the probeset and parameters such as melting temperature, GC content, amplicon size, and primer dimer formation are considered during their design. Data for the decrease in CJ mRNA levels for three exemplary genes (HTT, SMN2, and Target C) analyzed in this panel are reported as IC50 (compound concentration having 50% response in CJ decrease).

[2] = system: HTT; test: Gene panel canonical junction qPCR assay, HTT CJ mRNA; conditions: Table 9, CJ mRNA decrease, read-out: HTT IC50 (decrease in CJ mRNA levels)
Method: as §1, §2, §3, §4

[3] = system: HTT; test: Splicing assay (RT-qPCR on cell lysates) monitoring HTT splice variants: AJ and CJ mRNA; conditions: concentration having 50% response
Method in brief: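 Cell lysates were analysed by RT-qPCR, with ΔCt taken against a housekeeping gene and normalised to DMSO to give RQ by 2^(−ΔΔCt). Assay windows were set at 9 ΔCt for AJ and 3.5 ΔCt for CJ, and 4-parameter fits gave AC50 for the AJ increase and IC50 for the CJ decrease.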

[4] = system: SMN2; test: Gene panel canonical junction qPCR assay, SMN2 CJ mRNA; conditions: Table 9, CJ mRNA decrease, read-out: SMN2 IC50 (decrease in CJ mRNA levels)
Method: as §1, §2, §3, §4

[5] = Table 8, decrease in CJ mRNA, read-out: HTT CJ AC50
[6] = Table 8, increase in AJ mRNA, read-out: HTT AJ AC50
[7] = Table 7, decrease in CJ mRNA, read-out: HTT CJ AC50
[8] = Table 7, increase in AJ mRNA, read-out: HTT AJ AC50

SMILES	IC50 [1]	IC50 [2]	IC50 [4]	AC50 [3, 5]	AC50 [3, 6]	AC50 [3, 7]	AC50 [3, 8]
c1nc2c(-c3cn[nH]c3)ccc(-c3ccc(N[C@@H]4C[C@H]5CCC[C@@H](C4)N5)nn3)c2s1 [Compound 215]	< 0.1 µM	< 0.1 µM	< 0.1 µM	< 0.1 µM	< 0.1 µM	–	–
Cc1ncc(-c2ccc(-c3ccc(N(C)C4CC(C)(C)NC(C)(C)C4)nn3)c3ncsc23)o1 [Compound 201]	1 to 10 µM	1 to 10 µM	0.1 to 1 µM	1 to 10 µM	1 to 10 µM	–	–
CCN(c1ccc(-c2ccc(-c3cn[nH]c3)c3ncsc23)nn1)C1CC(C)(C)NC(C)(C)C1 [Compound 225, N-ethyl-6-[4-(1H-pyrazol-4-yl)-1,3-benzothiazol-7-yl]-N-(2,2,6,6-tetramethylpiperidin-4-yl)pyridazin-3-amine]	1 to 10 µM	1 to 10 µM	0.1 to 1 µM	1 to 10 µM	1 to 10 µM	–	–
CC1(C)CC(Oc2ccc(-c3ccc(-c4cn[nH]c4)c4ncsc34)nn2)CC(C)(C)N1 [Compound 181]	> 10 µM	> 10 µM	< 0.1 µM	> 10 µM	> 10 µM	> 5 µM	> 5 µM
CCN(c1ccc(-c2ccc(-c3cn[nH]c3)c3ncsc23)nn1)C1CCNCC1 [Compound 224, N-ethyl-N-(piperidin-4-yl)-6-[4-(1H-pyrazol-4-yl)-1,3-benzothiazol-7-yl]pyridazin-3-amine]	> 10 µM	> 10 µM	1 to 10 µM	> 10 µM	> 10 µM	–	–
c1nc2c(-c3cn[nH]c3)ccc(-c3ccc(O[C@@H]4C[C@H]5CC[C@@H](C4)N5)nn3)c2s1 [Compound 184]	0.1 to 1 µM	0.1 to 1 µM	< 0.1 µM	0.1 to 1 µM	< 0.1 µM	< 0.5 µM	0.5 to 5 µM

Further lines, with some results ahead:

IC50 [1]	IC50 [2]	IC50 [4]	SMILES	AC50 [3, 5]	AC50 [3, 6]	AC50 [3, 7]	AC50 [3, 8]
1 to 10 µM	1 to 10 µM	0.1 to 1 µM	Cn1cc(-c2ccc(-c3ccc(OC4CC(C)(C)NC(C)(C)C4)nn3)c3[nH]ncc23)cn1 [Compound 232, 4-(1-methylpyrazol-4-yl)-7-{6-[(2,2,6,6-tetramethylpiperidin-4-yl)oxy]pyridazin-3-yl}-1H-indazole]	1 to 10 µM	0.1 to 1 µM	–	–
> 10 µM	> 10 µM	1 to 10 µM	c1n[nH]cc1-c1ccc(-c2ccc(OC3CCNCC3)nn2)c2[nH]ncc12 [Compound 230]	> 10 µM	> 10 µM	–	–
> 10 µM	1 to 10 µM	0.1 to 1 µM	c1nc2c(-c3cn[nH]c3)ccc(-c3ccc(N4C[C@H]5CNC[C@H]5C4)nn3)c2s1 [Compound 194, 7-{6-[(exo)-hexahydro-1H-pyrrolo[3,4-c]pyrrol-2-yl]pyridazin-3-yl}-4-(1H-pyrazol-4-yl)-1,3-benzothiazole hydrochloride]	1 to 10 µM	> 10 µM	–	–
> 10 µM	> 10 µM	1 to 10 µM	c1nc2c(-c3cn[nH]c3)ccc(-c3ccc(N4CCC5(CCCNC5)C4)nn3)c2s1 (centres unmarked) [Compound 191]	> 10 µM	> 10 µM	–	–
> 10 µM	> 10 µM	> 10 µM	c1nc2c(-c3cn[nH]c3)ccc(-c3ccc(N4CCCC5(CCNC5)C4)nn3)c2s1 (centres unmarked) [Compound 193]	> 10 µM	> 10 µM	–	–
> 10 µM	> 10 µM	> 10 µM	c1n[nH]cc1-c1ccc(-c2ccc(N3CC4(CCCNC4)C3)nn2)c2[nH]ncc12 [Compound 218]	> 10 µM	> 10 µM	–	–
> 10 µM	> 10 µM	0.1 to 1 µM	c1nc2c(-c3cn[nH]c3)ccc(-c3ccc(N4CCNCC4)nn3)c2s1 [Compound 185]	> 10 µM	1 to 10 µM	> 5 µM	> 5 µM
